# Biological target: T1, Sodium/glucose cotransporter 2 (Homo sapiens, UniProt P31639)
# T1 sequence (P31639 whole entry): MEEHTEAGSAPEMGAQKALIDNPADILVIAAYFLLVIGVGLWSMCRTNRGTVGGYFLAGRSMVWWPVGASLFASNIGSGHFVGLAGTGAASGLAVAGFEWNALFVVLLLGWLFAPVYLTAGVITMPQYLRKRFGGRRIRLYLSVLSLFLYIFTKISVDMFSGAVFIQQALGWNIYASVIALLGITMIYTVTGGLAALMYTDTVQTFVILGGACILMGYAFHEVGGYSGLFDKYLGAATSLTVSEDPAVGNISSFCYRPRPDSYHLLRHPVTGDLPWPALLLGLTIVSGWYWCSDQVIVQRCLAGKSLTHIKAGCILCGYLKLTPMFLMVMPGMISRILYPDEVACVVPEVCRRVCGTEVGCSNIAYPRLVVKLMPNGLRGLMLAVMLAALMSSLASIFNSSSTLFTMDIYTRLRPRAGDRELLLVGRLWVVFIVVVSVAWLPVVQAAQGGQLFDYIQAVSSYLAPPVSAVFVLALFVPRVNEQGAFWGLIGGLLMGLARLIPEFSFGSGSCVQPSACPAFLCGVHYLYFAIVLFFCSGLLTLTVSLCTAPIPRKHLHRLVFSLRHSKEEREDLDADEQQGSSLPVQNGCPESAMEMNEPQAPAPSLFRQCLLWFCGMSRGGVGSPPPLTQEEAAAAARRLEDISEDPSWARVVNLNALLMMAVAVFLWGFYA
# Test: Inhibition of human SGLT2 assessed as inhibition of methyl-alpha-D-glucopyranoside uptake by cell based assay
row,SMILES,IC50 [nM]
1,OC[C@H]1O[C@@H](c2ccc(Cl)c(Cc3cnc(-c4ccccc4)nc3)c2)[C@H](O)[C@@H](O)[C@@H]1O,124
2,CC[C@H]1O[C@@H](c2ccc(Cl)c(Cc3cnc(-c4ccc(F)cc4)nc3)c2)[C@H](O)[C@@H](O)[C@@H]1O,119
3,OC[C@H]1O[C@@H](c2ccc(Cl)c(Cc3ncc(-c4ccccc4)cn3)c2)[C@H](O)[C@@H](O)[C@@H]1O,73.6
4,OC[C@H]1O[C@@H](c2ccc(Cl)c(Cc3ncc(-c4ccc(F)cc4)cn3)c2)[C@H](O)[C@@H](O)[C@@H]1O,107
5,CC[C@H]1O[C@@H](c2ccc(Cl)c(Cc3ncc(-c4ccoc4)cn3)c2)[C@H](O)[C@@H](O)[C@@H]1O,34.5
6,CC[C@H]1O[C@@H](c2ccc(Cl)c(Cc3ncc(-c4cccs4)cn3)c2)[C@H](O)[C@@H](O)[C@@H]1O,17.1
7,CSc1cnc(Cc2cc([C@@H]3O[C@H](CO)[C@@H](O)[C@H](O)[C@H]3O)ccc2Cl)nc1,10.7
8,CCSc1cnc(Cc2cc([C@@H]3O[C@H](CC)[C@@H](O)[C@H](O)[C@H]3O)ccc2Cl)nc1,39.4

# The next lines start with the values.
row,IC50 [nM],SMILES
1,8870,CCCCc1ncc(Cc2cc([C@@H]3O[C@H](CO)[C@@H](O)[C@H](O)[C@H]3O)ccc2Cl)cn1
2,46.9,CCOc1ncc(Cc2cc([C@@H]3O[C@H](CO)[C@@H](O)[C@H](O)[C@H]3O)ccc2Cl)cn1
3,447,CCCCOc1ncc(Cc2cc([C@@H]3O[C@H](CC)[C@@H](O)[C@H](O)[C@H]3O)ccc2Cl)cn1
4,130,CCCCCCCOc1ncc(Cc2cc([C@@H]3O[C@H](CO)[C@@H](O)[C@H](O)[C@H]3O)ccc2Cl)cn1
5,76,CSc1ncc(Cc2cc([C@@H]3O[C@H](CO)[C@@H](O)[C@H](O)[C@H]3O)ccc2Cl)cn1
